Type in all cases: cell-based
Assay [1] concerns Acinetobacter calcoaceticus KCTC2357. In words: Broth microdilution MIC. How it is done:
(§1) Test strains were cultured in a Mueller Hinton broth, and the antibacterial activities were determined by a broth microdilution assay. The test strains were grown to the mid-logarithmic phase, and diluted to a concentration of 10^5/ml with the same broth. 0.2 ml of the cells was added to each well of 96-well plates. The samples prepared in Examples 1 and 2 and Comparative Example 1 were serially diluted 2-fold, and added to the plates. The cells were incubated at 30° C. for 18 hrs, and cell growth was measured at 650 nm.
(§2) The antibacterial activity of Aceriphyllum rossii extract was determined with respect to Staphylococcus aureus, and the antibacterial activities of aceriphyllic acid A and 3-oxo-12-oleanen-27-oic acid were determined with respect to 15 different types of strains. Triclosan, oxacillin, and norfloxacin, which are commercially available antibiotics, were used for comparison.

Assay [2] has as its system Bacillus subtilis KCTC1021. The assay can be described thus: Broth microdilution MIC. Here is the method: as §1, §2
Background: In broth dilution the organism is exposed to a series of concentrations in liquid medium.

Assay [3] relates to Enterococcus faecium KCTC3122. In words: Broth microdilution MIC. How it is done:
as §1, §2

Assay [4] concerns Micrococcus luteus KCTC1056. The assay can be described thus: Broth microdilution MIC. How it is done:
as §1, §2

Assay [5] concerns Staphylococcus aureus 503. In words: Broth microdilution MIC. Here is the method:
as §1, §2

The test system of assay [6] is Staphylococcus aureus CCARM3167(MRSA). The assay can be described thus: Broth microdilution MIC. Here is the method: as §1, §2
Assay [7] deals with Staphylococcus aureus CCARM3505(QRSA). The assay can be described thus: Broth microdilution MIC. How it is done:
as §1, §2

Assay [8] concerns Staphylococcus aureus CCARM3506(MRSA). In words: Broth microdilution MIC. How it is done:
as §1, §2

The subject of assay [9] is Staphylococcus aureus CCARM3519(QRSA). The assay can be described thus: Broth microdilution MIC. How it is done: as §1, §2
For assay [10], the system named is Staphylococcus aureus KCTC1916. The assay can be described thus: Broth microdilution MIC. Here is the method: as §1, §2
For assay [11], the system named is Staphylococcus aureus RN4220. The assay can be described thus: Broth microdilution MIC. Here is the method: as §1, §2
Assay [12] deals with Streptococcus mutans KCTC3065. The assay can be described thus: Broth microdilution MIC. Here is the method: as §1, §2
Assay [13] deals with Streptococcus mutans KCTC3289. In words: Broth microdilution MIC. Here is the method:
as §1, §2

In assay [14] the test system is Streptococcus mutans KCTC5248. In words: Broth microdilution MIC. Here is the method:
as §1, §2

In assay [15] the test system is Streptococcus pneumoniae KCTC3932. The assay can be described thus: Broth microdilution MIC. How it is done: as §1, §2
In assay [16] the test system is Propionibacterium acnes ATCC6919. The assay can be described thus: Broth microdilution MIC, anaerobic RCMI liquid media. How it is done:
Propionibacterium acnes was cultured in RCMI liquid media under anaerobic conditions, and the antibacterial activities were determined by a broth microdilution assay. The test strain was pre-cultured in liquid media at 37° C. for 1 to 2 days. 15 μl of test material dissolved in DMSO was added to 3 ml of broth to a concentration of 32 ppm. The sample was serially diluted 2-fold to prepare seven samples with different concentrations. The samples were added to the pre-cultured broth to a microbial concentration of 10^5-6 cfu/ml, and cultured for 1-3 days, followed by measurement of cell growth.
as §2

Assay [17] concerns Staphylococcus aureus, methicillin-resistant S. aureus, and quinolone-resistant S. aureus. The assay can be described thus: Broth microdilution MIC, summary over S. aureus strains. Particulars: range over Staphylococcus aureus, MRSA and QRSA strains (text summary of Table 2). Here is the method: as §1, §2
For assay [18], the system named is Acinetobacter calcoaceticus, Micrococcus luteus, and Bacillus subtilis. In words: Broth microdilution MIC, text summary. Particulars: range over Acinetobacter calcoaceticus, Micrococcus luteus and Bacillus subtilis (text summary of Table 2). Here is the method: as §1, §2
Assay [19] relates to cariogenic bacteria (Streptococcus mutans). The assay can be described thus: Broth microdilution MIC, for cariogenic bacteria. The following applies: Streptococcus mutans (text summary of Table 2). Here is the method: as §1, §2
Where [20] appears, read: Staphylococcus aureus CCARM3167(MRSA), read-out: MIC.
Where [21] appears, read: Staphylococcus aureus CCARM3505(QRSA), read-out: MIC.
[22] abbreviates: Staphylococcus aureus CCARM3506(MRSA), read-out: MIC.
Setting [23] is: Staphylococcus aureus CCARM3519(QRSA), read-out: MIC.
Setting [24] is: Cutibacterium acnes, ATCC6919, Propionibacterium acnes (text summary of Table 2), read-out: MIC.
[25] abbreviates: Propionibacterium acnes ATCC6919.

In brackets after ≈: the same amount, converted by molar mass. Where two headings read alike, the source gives them in different places.

As a reminder, the MIC is the least concentration at which growth counts as inhibited.

As to `CC1(C)CC[C@]2(C)CC[C@@]3(C(=O)O)C(=CCC4[C@@]5(C)CCC(=O)C(C)(C)C5CC[C@]43C)C2C1` (stereo partly shown) [3-Oxo-12-oleanen-27-oic acid], the MIC in assay [1] (read-out: MIC) was 2 µg/mL (≈ 4.4 µM); in [2] (read-out: MIC), 2 µg/mL (≈ 4.4 µM); in assay [3] (read-out: MIC) it was more than 64 µg/mL; in assay [4] (read-out: MIC) it was 2 µg/mL (≈ 4.4 µM); in assay [5] (read-out: MIC), 2 µg/mL (≈ 4.4 µM); in [6] (setting [20]) it was 4 µg/mL (≈ 8.8 µM). The MIC in assay [7] (setting [21]) is 8 µg/mL (≈ 17.6 µM); in assay [8] (setting [22]) it was 8 µg/mL (≈ 17.6 µM); in assay [9] (setting [23]) it was 8 µg/mL (≈ 17.6 µM); in [10] (read-out: MIC), 2 µg/mL (≈ 4.4 µM); in assay [11] it was 4 µg/mL (≈ 8.8 µM); in assay [12] (read-out: MIC) it was 4 µg/mL (≈ 8.8 µM). The MIC in [13] (read-out: MIC) is 4 µg/mL (≈ 8.8 µM); in [14] (read-out: MIC), 4 µg/mL (≈ 8.8 µM); in assay [15] (read-out: MIC), 16 µg/mL (≈ 35.2 µM); in [16] (setting [24]) it was 2 µg/mL (≈ 4.4 µM); in assay [16] (setting [25]), 2 µg/mL (≈ 4.4 µM); in [17], 2 to 8 µg/mL (≈ 4.4 to 17.6 µM). The figures for the MIC in assay [18] and in assay [19] were 1 to 2 µg/mL (≈ 2.2 to 4.4 µM) and 4 µg/mL (≈ 8.8 µM), respectively.

Consider `CC1(C)CC[C@]2(C)CC[C@@]3(C(=O)O)C(=CCC4[C@@]5(C)CC[C@@H](O)[C@@](C)(CO)C5CC[C@]43C)C2C1` (stereo partly shown) [Aceriphyllic acid A, Aceriphyllic Acid A], for which the MIC in assay [1] (read-out: MIC) is 2 µg/mL (≈ 4.23 µM); in [2] (read-out: MIC) it was 1 µg/mL (≈ 2.12 µM); in [3] (read-out: MIC), 8 µg/mL (≈ 16.9 µM); in assay [4] (read-out: MIC), 2 µg/mL (≈ 4.23 µM); in [5] (read-out: MIC), 2 µg/mL (≈ 4.23 µM); in assay [6] (setting [20]), 4 µg/mL (≈ 8.46 µM). Further, the MIC in assay [7] (setting [21]) is 4 µg/mL (≈ 8.46 µM); in assay [8] (setting [22]), 4 µg/mL (≈ 8.46 µM); in [9] (setting [23]) it was 4 µg/mL (≈ 8.46 µM); in [10] (read-out: MIC), 4 µg/mL (≈ 8.46 µM); in assay [11], 4 µg/mL (≈ 8.46 µM); in [12] (read-out: MIC), 2 µg/mL (≈ 4.23 µM). Further, the MIC was 4 µg/mL (≈ 8.46 µM) in assay [13] (read-out: MIC); 2 µg/mL (≈ 4.23 µM) in assay [14] (read-out: MIC); 32 µg/mL (≈ 67.7 µM) in assay [15] (read-out: MIC); 2 µg/mL (≈ 4.23 µM) in assay [16] (setting [24]); 2 µg/mL (≈ 4.23 µM) in assay [16] (setting [25]); 2 to 4 µg/mL (≈ 4.23 to 8.46 µM) in [17]. Also, the MIC in assay [18] is 1 to 2 µg/mL (≈ 2.12 to 4.23 µM); in assay [19] it was 2 to 4 µg/mL (≈ 4.23 to 8.46 µM).

Regarding `CCn1cc(C(=O)O)c(=O)c2cc(F)c(N3CCNCC3)cc21` [Norfloxacin], the MIC in assay [1] (read-out: MIC) was 0.25 µg/mL (≈ 0.783 µM); in [2] (read-out: MIC) it was 0.25 µg/mL (≈ 0.783 µM); in [3] (read-out: MIC), 8 µg/mL (≈ 25.1 µM); in [4] (read-out: MIC) it was 2 µg/mL (≈ 6.26 µM); in [5] (read-out: MIC), 1 µg/mL (≈ 3.13 µM); in assay [6] (setting [20]), 8 µg/mL (≈ 25.1 µM). The MIC in assay [7] (setting [21]) is 250 µg/mL (≈ 783 µM); in [8] (setting [22]), 1 µg/mL (≈ 3.13 µM); in assay [9] (setting [23]), 125 µg/mL (≈ 391 µM); in assay [10] (read-out: MIC) it was 0.25 µg/mL (≈ 0.783 µM); in assay [11], 1 µg/mL (≈ 3.13 µM); in assay [12] (read-out: MIC), 8 µg/mL (≈ 25.1 µM). In addition, the MIC in [13] (read-out: MIC) is 8 µg/mL (≈ 25.1 µM); in [14] (read-out: MIC), 8 µg/mL (≈ 25.1 µM); in assay [15] (read-out: MIC), 2 µg/mL (≈ 6.26 µM).

`Cc1onc(-c2ccccc2)c1C(=O)N[C@@H]1C(=O)N2[C@@H]1SC(C)(C)[C@@H]2C(=O)O` [Oxacillin]: the MIC was 0.125 µg/mL (≈ 0.311 µM) in assay [1] (read-out: MIC); 0.25 µg/mL (≈ 0.623 µM) in assay [2] (read-out: MIC); 2 µg/mL (≈ 4.98 µM) in assay [3] (read-out: MIC); 8 µg/mL (≈ 19.9 µM) in assay [4] (read-out: MIC); 0.25 µg/mL (≈ 0.623 µM) in assay [5] (read-out: MIC); 500 µg/mL (≈ 1250 µM) in assay [6] (setting [20]). Besides, the MIC in assay [7] (setting [21]) came out at 0.5 µg/mL (≈ 1.25 µM); in assay [8] (setting [22]) it was 500 µg/mL (≈ 1250 µM); in assay [9] (setting [23]), 0.5 µg/mL (≈ 1.25 µM); in assay [10] (read-out: MIC), 0.25 µg/mL (≈ 0.623 µM); in assay [11] it was 0.25 µg/mL (≈ 0.623 µM); in assay [12] (read-out: MIC) it was 0.06 µg/mL (≈ 0.149 µM). Besides, the MIC was 0.06 µg/mL (≈ 0.149 µM) in assay [13] (read-out: MIC), 0.06 µg/mL (≈ 0.149 µM) in assay [14] (read-out: MIC) and 2 µg/mL (≈ 4.98 µM) in [15] (read-out: MIC).

In the case of `Oc1cc(Cl)ccc1Oc1ccc(Cl)cc1Cl` [Triclosan], the MIC in assay [1] is 0.003 µg/mL (≈ 0.0104 µM); in assay [2] it was 0.003 µg/mL (≈ 0.0104 µM); in assay [3], 4 µg/mL (≈ 13.8 µM); in assay [4], 1 µg/mL (≈ 3.45 µM); in [5] it was 0.006 µg/mL (≈ 0.0207 µM); in [6] (Staphylococcus aureus), 0.006 µg/mL (≈ 0.0207 µM). Moreover, the MIC in assay [7] (Staphylococcus aureus, CCARM3505) turned out to be 0.006 µg/mL (≈ 0.0207 µM); in assay [8] (Staphylococcus aureus), 0.006 µg/mL (≈ 0.0207 µM); in assay [9] (Staphylococcus aureus, CCARM3519), 0.006 µg/mL (≈ 0.0207 µM); in [10], 0.006 µg/mL (≈ 0.0207 µM); in [11], 0.006 µg/mL (≈ 0.0207 µM); in assay [12], 1 µg/mL (≈ 3.45 µM). Moreover, the MIC stood at 1 µg/mL (≈ 3.45 µM) in assay [13], 1 µg/mL (≈ 3.45 µM) in assay [14] and 32 µg/mL (≈ 111 µM) in [15].

The values above are taken from patent publication US8574556B2, “Antibacterial pharmaceutical composition comprising Aceriphyllum rossii extract and active compounds isolated therefrom” (Korea Research Institute of Bioscience and Biotechnology, priority 2008, dated 2013).
